From patent publication EP0878194A1, “REMEDIES OR PREVENTIVES FOR AIDS” (SANKYO COMPANY LIMITED, priority 1996, dated 1997)
Like-named read-outs stand apart in the source and are kept apart here.

What was measured:
[1] = system: HIV-1IIIB strain; assay: In vitro combined test: survival of HIV-1IIIB-infected MT4 cells (MTT), isobologram and combination index; assay type: cell-based
[2] = system: HIV-1IIIB strain; assay: as above; assay type: cell-based; settings: read-out: IC50 of Preparation example 117
Procedure: Human T cell transformed cell line MT4 cells were cultured in RPMI 1640 medium containing 10% fetal bovine serum. HIV-1IIIB strain was obtained from HIV-1IIIB chronically infected Molt-4 cells as a supernatant fluid and used as the source of infectious viruses. The 50% tissue culture infectious dose (TCID50) of this fluid was determined by the endpoint titration methods.
The compound of Preparation example 117 was added in a serial dilution in the vertical direction to six 96-well microtiter plates. As a result of adding ZDV (Sigma) in a serial dilution in the horizontal direction, diluted solutions containing mixtures of various concentrations were prepared in 96-well microtiter plates (n=4).
MT4 cells were exposed to HIV-1IIIB fluid at a multiplicity of infection (m.o.i) 0.001 TCID50/ml at 37°C for 1 hour, then the cells were washed twice with PBS, and aliquots (5 x 10^4 cells/well) were placed in the plates containing various concentration of agent prepared as described above. After incubation for 6 days, the survival rate of infected MT4 cells was determined by the cell survival test using MTT (Sigma). Incidentally, in this test, the absorbance at O.D. 540 nm was measured by a plate reader, and the survival rate was determined by drawing a cell survival curve.
Analysis was performed according to the method of Barenbaum using an isobologram and combination index (CI) (Barenbaum, M.C., Pharmacol. Rev., 41, 93-141, 1989). In this case, the CI value was calculated by the general isobole equation. Determination of synergy, addition and […] was performed by isobologram curve patterns and/or statistical comparison of experimental CI values with CI values in typical additive effects (CI values when identical compounds are used in combination (0.85±0.11, Taylor, D.L. et al., Antiviral Chem. Chemother., 6, 143-152, 1995)).

`Nc1ccn([C@@H]2CS[C@H](CO)O2)c(=O)n1` [3TC, 4-amino-1-(2-hydroxymethyl-1,3-oxathioran-5-yl)-(1H)-pyrimidin-2-one, reference compound] gave an IC50 ([1]; Human immunodeficiency virus 1, MT4, alone (Preparation example 117 0), Table 33 experiment, read-out: IC50 of 3TC) of 0.6 µg/mL, an IC50 ([1]; Human immunodeficiency virus 1, MT4, with Preparation example 117 0.38 ng/ml, read-out: IC50 of 3TC) of 0.5 µg/mL and an IC50 ([1]; Human immunodeficiency virus 1, MT4, with Preparation example 117 0.78 ng/ml, read-out: IC50 of 3TC) of 0.52 µg/mL. The IC50 ([1]; Human immunodeficiency virus 1, MT4, with Preparation example 117 0.96 ng/ml, read-out: IC50 of 3TC) was 0.5 µg/mL, the IC50 ([1]; Human immunodeficiency virus 1, MT4, with Preparation example 117 1.56 ng/ml, read-out: IC50 of 3TC) was 0.43 µg/mL and the IC50 ([1]; Human immunodeficiency virus 1, MT4, with Preparation example 117 3.13 ng/ml, read-out: IC50 of 3TC) was 0.34 µg/mL. For the same compound, the IC50 ([1]; Human immunodeficiency virus 1, MT4, with Preparation example 117 4.57 ng/ml, read-out: IC50 of 3TC) was 0.25 µg/mL, the IC50 ([1]; Human immunodeficiency virus 1, MT4, with Preparation example 117 6.25 ng/ml, read-out: IC50 of 3TC) was 0.19 µg/mL and the IC50 ([1]; Human immunodeficiency virus 1, MT4, with Preparation example 117 8.0 ng/ml, read-out: IC50 of 3TC) was 0.125 µg/mL. It also gave an IC50 ([1]; Human immunodeficiency virus 1, MT4, with Preparation example 117 12.4 ng/ml, read-out: IC50 of 3TC) of 0.063 µg/mL, an IC50 ([1]; Human immunodeficiency virus 1, MT4, with Preparation example 117 12.7 ng/ml, read-out: IC50 of 3TC) of 0.0313 µg/mL and an IC50 ([1]; Human immunodeficiency virus 1, MT4, with Preparation example 117 13.0 ng/ml, read-out: IC50 of 3TC) of 0.0156 µg/mL.
`OC[C@@H]1CC[C@H](n2cnc3c(O)ncnc32)O1` [DDI, 2',3'-dideoxyinosine, reference compound] was tested, and the IC50 ([1]; Human immunodeficiency virus 1, MT4, alone (Preparation example 117 0), Table 34 experiment, read-out: IC50 of DDI) was 5.4 µM, the IC50 ([1]; Human immunodeficiency virus 1, MT4, with Preparation example 117 0.39 ng/ml, read-out: IC50 of DDI) was 4.27 µM and the IC50 ([1]; Human immunodeficiency virus 1, MT4, with Preparation example 117 0.78 ng/ml, read-out: IC50 of DDI) was 4.38 µM. It also gave an IC50 ([1]; Human immunodeficiency virus 1, MT4, with Preparation example 117 1.56 ng/ml, read-out: IC50 of DDI) of 3.65 µM, an IC50 ([1]; Human immunodeficiency virus 1, MT4, with Preparation example 117 3.13 ng/ml, read-out: IC50 of DDI) of 2.8 µM and an IC50 ([1]; Human immunodeficiency virus 1, MT4, with Preparation example 117 3.85 ng/ml, read-out: IC50 of DDI) of 2.5 µM. For the same compound, the IC50 ([1]; Human immunodeficiency virus 1, MT4, with Preparation example 117 6.25 ng/ml, read-out: IC50 of DDI) was 1.67 µM, the IC50 ([1]; Human immunodeficiency virus 1, MT4, with Preparation example 117 7.70 ng/ml, read-out: IC50 of DDI) was 1.25 µM and the IC50 ([1]; Human immunodeficiency virus 1, MT4, with Preparation example 117 10.0 ng/ml, read-out: IC50 of DDI) was 0.63 µM. It also gave an IC50 ([1]; Human immunodeficiency virus 1, MT4, with Preparation example 117 10.5 ng/ml, read-out: IC50 of DDI) of 0.313 µM and an IC50 ([1]; Human immunodeficiency virus 1, MT4, with Preparation example 117 11.0 ng/ml, read-out: IC50 of DDI) of 0.156 µM.
With `Cn1cc(C(=O)O)c(=O)c2cc(F)c(N3CCN(c4ncccn4)CC3)c(C(F)(F)F)c21` [Preparation example 117, 6-fluoro-8-trifluoromethyl-1,4-dihydro-4-oxo-1-methyl-7-[4-(2-pyrimidinyl)piperazin-1-yl]quinoline-3-carboxylic acid] the IC50 ([1]; Human immunodeficiency virus 1, MT4, alone (3TC 0), Table 33 experiment, read-out: IC50 of Preparation example 117) was 0.016 µg/mL, the IC50 ([1]; Human immunodeficiency virus 1, MT4, alone (DDI 0), Table 34 experiment, read-out: IC50 of Preparation example 117) was 0.014 µg/mL and the IC50 ([1]; Human immunodeficiency virus 1, MT4, alone (ZDV 0), Table 32 experiment, read-out: IC50 of Preparation example 117) was 0.039 µg/mL. It also gave an IC50 ([1]; Human immunodeficiency virus 1, MT4, with 3TC 0.0156 µg/ml, read-out: IC50 of Preparation example 117) of 0.013 µg/mL, an IC50 ([1]; Human immunodeficiency virus 1, MT4, with 3TC 0.0313 µg/ml, read-out: IC50 of Preparation example 117) of 0.0127 µg/mL and an IC50 ([1]; Human immunodeficiency virus 1, MT4, with 3TC 0.063 µg/ml, read-out: IC50 of Preparation example 117) of 0.0124 µg/mL. It also gave an IC50 ([1]; Human immunodeficiency virus 1, MT4, with 3TC 0.125 µg/ml, read-out: IC50 of Preparation example 117) of 0.008 µg/mL, an IC50 ([1]; Human immunodeficiency virus 1, MT4, with 3TC 0.19 µg/ml, read-out: IC50 of Preparation example 117) of 0.00625 µg/mL and an IC50 ([1]; Human immunodeficiency virus 1, MT4, with 3TC 0.25 µg/ml, read-out: IC50 of Preparation example 117) of 0.00457 µg/mL. It also gave an IC50 ([1]; Human immunodeficiency virus 1, MT4, with 3TC 0.34 µg/ml, read-out: IC50 of Preparation example 117) of 0.00313 µg/mL, an IC50 ([1]; Human immunodeficiency virus 1, MT4, with 3TC 0.43 µg/ml, read-out: IC50 of Preparation example 117) of 0.00156 µg/mL and an IC50 ([1]; Human immunodeficiency virus 1, MT4, with 3TC 0.50 µg/ml (Table 33, first line with 0.50), read-out: IC50 of Preparation example 117) of 0.00096 µg/mL. The IC50 ([1]; Human immunodeficiency virus 1, MT4, with 3TC 0.50 µg/ml (Table 33, second line with 0.50), read-out: IC50 of Preparation example 117) was 0.00038 µg/mL, the IC50 ([1]; Human immunodeficiency virus 1, MT4, with 3TC 0.52 µg/ml, read-out: IC50 of Preparation example 117) was 0.00078 µg/mL and the IC50 ([1]; Human immunodeficiency virus 1, MT4, with DDI 0.156 µM, read-out: IC50 of Preparation example 117) was 0.011 µg/mL. The IC50 ([1]; Human immunodeficiency virus 1, MT4, with DDI 0.313 µM, read-out: IC50 of Preparation example 117) was 0.0105 µg/mL, the IC50 ([1]; Human immunodeficiency virus 1, MT4, with DDI 0.63 µM, read-out: IC50 of Preparation example 117) was 0.01 µg/mL and the IC50 ([1]; Human immunodeficiency virus 1, MT4, with DDI 1.25 µM, read-out: IC50 of Preparation example 117) was 0.0077 µg/mL. For the same compound, the IC50 ([1]; Human immunodeficiency virus 1, MT4, with DDI 1.67 µM, read-out: IC50 of Preparation example 117) was 0.00625 µg/mL, the IC50 ([1]; Human immunodeficiency virus 1, MT4, with DDI 2.50 µM, read-out: IC50 of Preparation example 117) was 0.00385 µg/mL and the IC50 ([1]; Human immunodeficiency virus 1, MT4, with DDI 2.80 µM, read-out: IC50 of Preparation example 117) was 0.00313 µg/mL. The IC50 ([1]; Human immunodeficiency virus 1, MT4, with DDI 3.65 µM, read-out: IC50 of Preparation example 117) was 0.00156 µg/mL, the IC50 ([1]; Human immunodeficiency virus 1, MT4, with DDI 4.27 µM, read-out: IC50 of Preparation example 117) was 0.00039 µg/mL and the IC50 ([1]; Human immunodeficiency virus 1, MT4, with DDI 4.38 µM, read-out: IC50 of Preparation example 117) was 0.00078 µg/mL. It also gave an IC50 ([1]; Human immunodeficiency virus 1, MT4, with ZDV 0.78 ng/ml, read-out: IC50 of Preparation example 117) of 0.028 µg/mL, an IC50 ([1]; Human immunodeficiency virus 1, MT4, with ZDV 1.20 ng/ml, read-out: IC50 of Preparation example 117) of 0.025 µg/mL and an IC50 ([1]; Human immunodeficiency virus 1, MT4, with ZDV 3.13 ng/ml, read-out: IC50 of Preparation example 117) of 0.0162 µg/mL. The IC50 ([1]; Human immunodeficiency virus 1, MT4, with ZDV 5.60 ng/ml, read-out: IC50 of Preparation example 117) was 0.0125 µg/mL, the IC50 ([1]; Human immunodeficiency virus 1, MT4, with ZDV 12.5 ng/ml, read-out: IC50 of Preparation example 117) was 0.0053 µg/mL and the IC50 ([1]; Human immunodeficiency virus 1, MT4, with ZDV 14.5 ng/ml, read-out: IC50 of Preparation example 117) was 0.00156 µg/mL. It also gave an IC50 ([2]; Human immunodeficiency virus 1, MT4, with ZDV 1.56 ng/ml) of 0.0241 µg/mL, an IC50 ([2]; Human immunodeficiency virus 1, MT4, with ZDV 6.25 ng/ml) of 0.0111 µg/mL and an IC50 ([2]; Human immunodeficiency virus 1, MT4, with ZDV 11.6 ng/ml) of 0.00625 µg/mL. It also gave an IC50 ([2]; Human immunodeficiency virus 1, MT4, with ZDV 13.9 ng/ml) of 0.00313 µg/mL.
